Reference: patent publication US20100004165A1, “Novel Protein Transduction Domains and Uses Therefor” (The Arizona Board of Regents, a body corporate acting on …, priority 2005, published 2010)
Square brackets hold non-standard residues; d marks the D form. Ends that are not written are not given here. pS = N[C@@H](COP(=O)(O)O)C(=O)O

Assays:
[1] = system: connective tissue growth factor (CTGF); assay: TGFβ1-induced CTGF expression in human keloid fibroblasts (immunoblot); type: cell-based; settings: 24 hours; for reduction of CTGF expression compared to TGFβ1 treatment: 50 μM peptide
Experimental: As a key marker of the anti-fibrotic activity of HSP20 peptides, we have previously examined expression levels of connective tissue growth factor (CTGF) in human keloid fibroblasts after stimulation with transforming growth factor beta 1 (TGFβ1). Cells were grown in 10 cm^2 dishes to 70% confluence in DMEM with 10% fetal bovine serum (FBS) and additional penicillin and streptomycin (1%), at 37° C. and 10% CO2. Cells were serum starved in DMEM containing 0.5% FBS for 48 hours before the experiment. Cells were either untreated (control) or treated with TGFβ1 (2.5 ng/mL) in the presence or absence of WL-P20 (SEQ ID NO: 10) phosphopeptide ([…]p[…], where pS is phosphoserine) (10 or 50 μM) for 24 hours. At the end of the experiment, cells were rinsed with PBS, and homogenized using urea-dithiothreitol-chaps (UDC) buffer. Lysates were mixed, centrifuged (6000×g) for 20 minutes, and the supernatant was used for determination of protein expression. Samples (20 μg of protein) were loaded on 15% SDS-PAGE gels, and the proteins were electrophoretically transferred to Immobilon membranes. Immunoblotting with CTGF antibodies was used in conjunction with near infrared detection antibodies to determine CTGF expression (Odyssey Li-Cor, Lincoln, Nebr.). Loading differences were corrected for by normalizing to GAPDH expression
(§1) Human keloid fibroblasts were serum-starved in DMEM medium containing 0.5% FBS for 48 hours, and treated with 2.5 ng/mL of TGF-betal for 24 hours and concomitantly treated with the WL-20 (SEQ ID NO: 10) (10 or 50 μM) for 24 hours. The Western blot bands were quantified by densitometry, and CTGF and collagen expression were related to GAPDH expression to correct for loading differences. The expression of CTGF and collagen in control cells was set to 1 for comparison of different blots.

[2] = system: porcine ear skin; assay: Fluorescence microscopy of skin sections after peptide application; settings: 4 hours post-application
Excerpt: The skin sections (8 μm) were mounted on glass slides. The slides were visualized without any additional staining or treatment through a 20× objective using a Zeiss microscope (Carl Zeiss, Thornwood, N.Y., USA) equipped with a filter for FITC and AxioVision software.

[3] = system: porcine ear skin; assay: In vitro skin penetration and transdermal delivery, porcine ear skin in Franz diffusion cell, spectrofluorimetry (Example 3); settings: up to 8 hours post-application
Experimental: Fluorescence microscopy was used to visualize the peptides in different skin layers.
Formulations: Except in the experiments involving chemical penetration enhancers, FITC-labeled peptides were dissolved in phosphate-buffered saline (PBS, 10 mM, pH 7.2); the peptide concentration was 100 μM. In the experiment involving penetration enhancers, PBS could not be used as a solvent because of the lipophilic nature of monoolein and oleic acid. Propylene glycol was used as a solvent, since it solubilizes both lipids and peptides. […] The formulations were prepared by mixing monoolein or oleic acid with propylene glycol and adding the peptides to the system immediately thereafter.
Porcine ear skin was used as model skin for in vitro skin penetration studies because of its similarity with human skin, especially regarding histological and biochemical properties and permeability to drugs (33). Freshly excised porcine ears were obtained from a local abattoir. The skin from the outer surface of the ear was carefully dissected; making sure that the subcutaneous fat was maximally removed (34). Maximum care was taken to maintain the integrity of the skin, which was assured by histology. The cleaned porcine ear skin was immediately mounted in a Franz diffusion cell (diffusion area of 1 cm^2; Laboratory Glass Apparatus, Inc, Berkeley, Calif., USA), with the stratum corneum facing the donor compartment (where the formulation was applied) and the dermis facing the receptor compartment, which was filled with PBS (100 mM, pH 7.2, 3 mL). The receptor phase was maintained at 37° C. and under constant stirring. To achieve higher reproducibility, the skin samples were equilibrated to the diffusion cell conditions for 30 minutes before application of any formulation.
PBS solutions or propylene glycol formulations of the peptides (70 μL each) were applied to the skin surface (donor compartment). […] The concentrations of FITC-P20 (SEQ ID NO: 9), FITC-YARA-P20 (SEQ ID NO: 42), and FITC-TAT-P20 (SEQ ID NO: 43) in the skin and receptor phase were determined at 0.5, 1, 2, 4, and 8 hour post-application.
At the end of the experiment, skin surfaces were thoroughly washed with distilled water to remove excess formulation and carefully wiped with a tissue paper. To separate the stratum corneum (SC) from the remaining epidermis (E) and dermis (D), the skin was subjected to tape stripping. The skin was stripped with 15 pieces of adhesive tape (3M, St. Paul, Minn., USA), and the tapes containing the SC were immersed in 3 mL of a water:methanol (1:1 v/v) solution, vortexed for 2 min, and bath sonicated for 30 minutes. The remaining [E+D] was cut in small pieces, vortexed for 2 minutes in 2 mL of a water:methanol (1:1 v/v) solution, and homogenized using a tissue grinder for 1 minute and bath sonication for 30 minutes. The resulting mixture was centrifuged for 1 minute. The peptide present in the receptor phase was concentrated (10×) as follows. Samples (2 mL) of the receptor phase were lyophilized for 24 hours, and the residue was dissolved in 200 μL of a hidroalcoholic (20% of ethanol) solution.
All solutions were subjected to fluorimetry analysis using a Gemini SpectraMax™ platereader (Molecular Devices, Sunnyvale, Calif., USA) with excitation at 495 nm and emission at 518 nm. […] To evaluate the recovery of the peptides from the skin in the extraction procedure, tissues sections (1 cm^2) were spiked with 20 μL of 0.2 and 0.5 mM solutions of the peptides. The skin sections were homogenized using a tissue grinder, vortex-mixer, and bath sonicator, as described above. […] We accounted for such a recovery percentage in the quantification of peptides.

[4] = system: collagen; assay: TGFβ1-induced collagen expression in human keloid fibroblasts (Western blot); type: cell-based; settings: 10 or 50 μM, 24 hours
Experimental: as §1

[5] = system: primary rat astrocyte cells; assay: Transduction across cell membranes in primary rat astrocyte cells; type: cell-based
Experimental: The in vitro model used to assess transduction across cell membranes was primary rat astrocyte cells. Cells were isolated as described (Innocenti et. al., J. Neurosci. 20:1800-1808, 2000), seeded at ˜3×10^4 cells/cm^2, and cultured in full serum (10% FBS in α-MEM) overnight. Some cells were serum starved by culturing in 0.5% FBS for 1-24 hours prior to treatment with transduction peptides.

[6] = system: Rat aorta; assay: Vasorelaxation of rat aorta rings pre-contracted with KCl (muscle bath)
Experimental: Rat aorta was isolated and dissected free from connective and fat tissue. Transverse rings, 3.0 mm in width, were cut and tied to silk suture. The tissue was suspended in a muscle bath containing a bicarbonate buffer (120 mM NaCl, 4.7 mM KCl, 1.0 mM MgSO4, 1.0 mM NaH2PO4, 10 mM glucose, 1.5 mM CaCl2, and 25 mM […], pH 7.4) and equilibrated with 95% O2/5% CO2 at 37° C. The rings were fixed at one end to a stainless steel wire and attached to a force transducer in muscle perfusion system (Radnotti). The rings were then progressively stretched, and the isometric force generated in response to 110 mM KCl (with equimolar replacement of NaCl in bicarbonate buffer) was determined until the consistent maximal force was produced. Agonists and peptide was added directly to the baths. Tissue that was pre-contracted with 110 mM potassium chloride (KCl) followed by 1.0 mM WL-P20 ([…]p[…], pS is phosphoserine) (SEQ ID NO: 10), where pS is phosphoserine) relaxed compared to untreated control (13% relaxation at 10 minutes, 50% relaxation at 30 minutes, and maximum 88% relaxation at ˜60 minutes, FIG. 4). Percent relaxation was calculated relative to maximum force generated with KCl. […] Such a difference may result from different mechanisms of penetration and/or intracellular localization.

[7] = system: porcine ear skin; assay: Ex vivo skin transduction, porcine ear skin in modified Franz diffusion cell (Example 2); type: in vitro ADME; settings: 100 uM, conjugated or alone (FIG. 1, Panel C)
Experimental: The ex vivo model selected for skin transduction studies was freshly excised porcine ears. […] The system was maintained at 37° C. and under constant stirring. […] The amount of peptides that permeated across the skin was determined in the receptor phase; 1.5 mL of the receptor phase was withdrawn, lyophilized and the residue was suspended in 150 μL of water. […] Standard curves of the peptides were used as reference.

[8] = system: anal canal; settings: 1 mM in K-Y Jelly, 4 hours
Experimental: (§2) Peptide was applied to both the vagina and anal canal using an applicator and allowed to penetrate for 4 hours. Tissue was excised and embedded in frozen tissue embedding medium (HistoPrep) for cryosectioning. Sections were mounted in anti-fade reagent and examined using fluorescence microscopy (Zeiss Axiovert).

[9] = system: vagina; settings: 1 mM in K-Y Jelly, 4 hours
Experimental: as §2

Row | Substance | reduction of CTGF expression compared to TGFβ1 treatment [1] | localisation of fluorescence in skin layers [2] | permeation across the skin, in words [3] | effect on TGFβ1-induced CTGF expression ([1]; 10 or 50 μM) | effect on TGFβ1-induced collagen expression [4] | time of maximal transduction [5] | transduction ([5]; 1 μM) | transduction ([5]; 25 μM) | transduction ([5]; 50 μM) | time of maximum relaxation [6] | maximum relaxation relative to maximum force generated with KCl ([6]; 1.0 mM peptide, 110 mM KCl pre-contraction) | relaxation relative to maximum force generated with KCl ([6]; 1.0 mM peptide, 110 mM KCl pre-contraction, at 10 minutes) | relaxation relative to maximum force generated with KCl ([6]; 1.0 mM peptide, 110 mM KCl pre-contraction, at 30 minutes) | skin penetration [7] | fluorescence in the anal canal [8] | mucosal penetration in the vagina [9]
1 | WLRRApSAPLPGLK (WLRRA[pS]APLPGLK; also: FITC label) [P20] | 30% | fluorescence was found only in the SC | did not permeate across the skin at all |  |  |  |  |  |  |  |  |  |  |  |  | 
2 | WLRRIKAWLRRApSAPLPGLK (WLRRIKAWLRRA[pS]APLPGLK) [WL-P20] | 46% |  |  | inhibits | inhibits | approximately 20 minutes | no transduction | slightly reduced transduction | efficient transduction | ~60 min | 88% | 13% | 50% | significantly enhanced | only minimal fluorescence | Mucosal penetration in the vagina was achieved
